Source: PMC3838804, “Rapid Identification of Aldose Reductase Inhibitory Compounds from Perilla frutescens” (BioMed Research International, 2013)
pIC50: −log10 of the molar value. Like-named read-outs stand apart in the source and are kept apart here.

Assays:
[1] = target: T1, rAR (aldose reductase) (Rattus norvegicus, UniProt P07943); assay: HPLC microfractionation combined with 96-well enzyme assay for rAR inhibition; type: biochemical; conditions: HPLC microfractions of EtOAc soluble fraction (10 μL of 10 mg/mL injected), 96-well plate; hit limit 18.49%
T1 construct: The rat lens homogenate was prepared according to Hayman and Kinoshita with some modifications; from tissue; host or cells: rat lens (male Sprague-Dawley rats)
Procedure: An automated fraction collector (Foxy 200; ISCO, Lincoln, NE, USA) coupled with HPLC equipment (Thermo Electron Spectra HPLC system; Thermo Separation Products, San Jose, CA, USA) was used to separate and collect compounds from extracts directly into 96-well plates (Nunc, Roskilde, Denmark) at 0.4 mL/well (Figure 1). […] The mobile phase, consisting of acetonitrile (ACN) and 0.1% aqueous trifluoroacetic acid (TFA), was used at a flow rate of 0.8 mL/min. The gradient elution program was 7.5–26.5% B (0–20 min), 26.5% B (20–30 min), 26.5–36% B (30–40 min), and 36–100% B (40–45 min). Injection volume was 10 μL at sample concentration 10 mg/mL and detection wavelength 280 nm. After collection, all fractions were evaporated to dryness using an EZ-2 plus evaporator (Gene Vac Ltd., Ipswich, UK).
The effect on rAR inhibitory activity (%) was calculated as the change in absorbance in a sample well versus the change in absorbance in a blank well (average, n = 12). Spontaneous hydrolysis was subtracted from the reaction rate. The hit limit was set at 3 standard deviations (SD) from the minimum AR inhibitory activity. Z′-factor, signal-to-background ratio (S/B), and signal-to-noise ratio(S/N) were used to evaluate the quality of the test: Z′ = 1[(3 × SDs + 3 × SDb)/|X s X b|], S/B = X s/X b, and S/N = (X s X b)/(SDs ^2 + SDb ^2)^1/2; X s and SDs are average and standard deviation of the signal, that is, absorption detected at the 8th measurement point in blank wells (n = 12) after adding the enzyme; X b and SDb are average and SD of the background, that is, absorption at the first measurement point in blank wells (n = 12) after adding the enzyme.
Crude rAR was prepared as follows. Rat lenses were removed from […] male Sprague-Dawley rats weighing 250–280 g and frozen until required. The rat lens homogenate was prepared according to Hayman and Kinoshita with some modifications. A partially purified enzyme with a specific activity of 6.5 U/mg was routinely used to test enzyme inhibition. The partially purified material was separated into 1.0 mL aliquots and stored at […]. rAR activity was assayed spectrophotometrically by measuring the decrease in NADPH absorption at 340 nm over a 4 min period with dl-glyceraldehyde substrate. Each 1.0 mL cuvette contained equal units of the enzyme, 0.10 M sodium phosphate buffer (pH 6.2), and 0.3 mM NADPH, with or without 10 mM substrate and an inhibitor [22, 23].

[2] = target: rAR (rat lens aldose reductase) (Rattus norvegicus, UniProt P07943); assay: Assay for rAR inhibitory activity (NADPH absorption decrease at 340 nm, DL-glyceraldehyde substrate); type: biochemical; conditions: for pIC50: read-out: IC50 on rAR (isolated compounds); for rAR inhibitory activity (in words): isolated compound
Procedure: Crude rAR was prepared as follows. Rat lenses were removed from closed male Sprague-Dawley rats weighing 250–280 g and frozen until required. The rat lens homogenate was prepared according to Hayman and Kinoshita with some modifications [20, 21]. […] The partially purified material was separated into 1.0 mL aliquots and stored at 40°C. rAR activity was assayed spectrophotometrically by measuring the decrease in NADPH absorption at 340 nm over a 4 min period with dl-glyceraldehyde substrate. Each 1.0 mL cuvette contained equal units of the enzyme, 0.10 M sodium phosphate buffer (pH 6.2), and 0.3 mM NADPH, with or without 10 mM substrate and an inhibitor [22, 23].

SMILES	rAR inhibitory activity in the corresponding wells [1] [%]	pIC50 [2]	pIC50 ([2]; concentration at 50% inhibition, crude rat lens AR, pH 6.2)	rAR inhibitory activity (in words) [2]
O=C(/C=C/c1ccc(O)c(O)c1)O[C@H](Cc1ccc(O)c(O)c1)C(=O)O [Compound 4, rosmarinic acid]	53.31		5.56	
O=C(O)c1ccc(O)c(O)c1 [Compound 1, protocatechuic acid]	20.46			did not exhibit inhibitory activity
O=c1cc(-c2ccc(O)c(O)c2)oc2cc(O)cc(O)c12 [Compound 5, luteolin]	29.46			

Further lines, with some results ahead:

rAR inhibitory activity in the corresponding wells [1] [%]	pIC50 [2]	SMILES	pIC50 ([2]; concentration at 50% inhibition, crude rat lens AR, pH 6.2)	rAR inhibitory activity (in words) [2]
22.94	5.39	COC(=O)[C@@H](Cc1ccc(O)c(O)c1)OC(=O)/C=C/c1ccc(O)c(O)c1 [Compound 6, methyl rosmarinic acid]		
21.31		O=C(O)/C=C/c1ccc(O)c(O)c1 [Compound 3, caffeic acid]		weak inhibitory activity
34.50	5.50	O=C(/C=C/c1ccc(O)c(O)c1)O[C@@H]1C[C@](O)(C(=O)O)C[C@@H](O)[C@H]1O [Compound 2, chlorogenic acid]		
